Test results from US10688200B2, “Urea-based prostate specific membrane antigen (PSMA) inhibitors for imaging and therapy” (Five Eleven Pharma Inc., priority 2015, dated 2020).
Values belong to the molecule of their own block, whether it stands above or below them.

What was measured:
PSMA [1] = target: T1, PSMA (Homo sapiens, UniProt Q04609); assay: In vitro competitive binding assay to determine IC50 to PSMA; settings: LNCaP cells, [125I]MIP-1095 radioligand, 37° C. 1 h, mean±SD (n=4); read-out: PSMA binding affinities of cold ligands, IC50
T1 construct: 100 μL of freshly harvested PSMA cells; endogenous in cells; host or cells: 'PSMA cells' in the method
T1 sequence (Q04609 whole entry): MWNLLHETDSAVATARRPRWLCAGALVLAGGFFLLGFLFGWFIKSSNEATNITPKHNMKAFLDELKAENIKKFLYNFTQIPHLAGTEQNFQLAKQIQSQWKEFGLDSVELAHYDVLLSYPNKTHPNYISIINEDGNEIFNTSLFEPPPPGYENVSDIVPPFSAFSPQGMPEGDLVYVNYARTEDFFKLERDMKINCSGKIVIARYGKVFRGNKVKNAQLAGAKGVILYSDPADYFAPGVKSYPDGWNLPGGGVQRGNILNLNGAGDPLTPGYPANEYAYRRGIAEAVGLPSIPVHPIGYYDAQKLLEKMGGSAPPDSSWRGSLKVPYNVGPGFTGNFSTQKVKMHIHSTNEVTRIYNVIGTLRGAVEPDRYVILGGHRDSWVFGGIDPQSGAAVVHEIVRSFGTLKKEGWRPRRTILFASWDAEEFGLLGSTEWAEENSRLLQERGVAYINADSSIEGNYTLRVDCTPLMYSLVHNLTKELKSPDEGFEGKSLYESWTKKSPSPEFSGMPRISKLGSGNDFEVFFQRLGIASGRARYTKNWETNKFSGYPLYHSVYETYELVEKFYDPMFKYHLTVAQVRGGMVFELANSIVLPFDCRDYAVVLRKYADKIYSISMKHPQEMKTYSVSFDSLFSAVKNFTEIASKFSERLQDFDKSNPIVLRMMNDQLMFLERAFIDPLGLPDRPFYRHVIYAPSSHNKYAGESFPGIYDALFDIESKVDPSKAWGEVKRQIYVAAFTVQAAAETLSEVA
Procedure: In Vitro Competitive Binding Assay to Determine IC50 to PSMA
In order to determine the binding affinity, in vitro competitive binding assays were performed. The LNCaP cells were incubated with 150,000 cpm of [^125I]MIP-1095 in the presence of 10 different concentrations of competing drugs. After incubation at 37° C. for 1 h, the bound and free radioactivity were separated by vacuum filtration through GF/B filter paper using a Brandel M-24R cell harvester followed by washing twice. Non-specific binding was defined with 10 μM PMPA. The cell bound radioactivity was measured with a gamma counter, 2470 Wizard^2 (Perkin-Elmer, IL). The IC50 values were calculated by fitting the data using a nonlinear regression algorithm (GraphPad Software).
The PSMA binding affinities were determined in a competitive binding assay using LNCaP human prostate carcinoma cells and the known high affinity PSMA ligand, [^125I]MIP-1095 as the radioligand. Data are expressed as mean±SD (n=4).

PSMA [2] = target: T1, PSMA; assay: In vitro binding signals of 68Ga labeled ligands in LNCaP tumor homogenates; settings: Ga-68 radiolabeled ligands; for Total binding (TB): 37° C. 60 min; for Nonspecific binding (NSB): with 1a (PSMA11) 10 μM
[3] = tested on: LNCaP tumor bearing nude mice; assay: Biodistribution of [68Ga]labeled ligand in PSMA positive tumor bearing nude mice; type: in vivo, mouse; settings: 1 h post-injection, i.v., n = 3
Procedure: In a dish contained 5×10^6 cells of LNCaP in 50% Matrigel (Becton Dickinson, Heidelberg, Germany) were subcutaneously inoculated into the left shoulder of male 5- to 6-week-old CD-1 nu/nu mice (Charles River Laboratories). The tumors were allowed to grow for 8 weeks until approximately 0.5 cm^3 in size.
The ^68Ga-radiolabeled compounds were injected via tail vein (25 μCi per mouse; 0.1-0.2 nmol). At 1 h after injection, the animals were sacrificed. Organs of interest were dissected and weighed. The radioactivity was measured with a gamma counter and calculated as % ID/g.

[4] = tested on: PSMA-expressing LNCaP cells; assay: Cell binding and internalization; type: cell-based, human; settings: 37° C.
Procedure: The cellular uptake and internalization kinetics of the [^68Ga]1a, [^68Ga]5a and [^68Ga]5b were determined using PSMA-expressing LNCaP cells. Furthermore, to be able to discriminate between total cellular activity (sum of membrane-associated and internalized activity) and internalized activity, all incubations were followed by a washing step with mild acid at 4° C. to remove specifically cell-surface bound radioligand by displacement.
LNCaP cells (in 6-well plates in triplicates) were incubated in RPMI-1640 medium with [^68Ga]1a, [^68Ga]5a or [^68Ga]5b for 0-2 h at 37° C. At the indicated time, the medium was removed and the cells were washed twice and then incubated with a mild acid buffer (50 mM glycine, 150 mM NaCl, pH 3.0) at 4° C. for 5 min. The supernatant (containing cell surface-bound radioactivity) was pooled and the cell pellet (containing internalized radioactivity) was collected with filter paper and then radioactivity in supernatant and cell pellet was counted on a gamma counter.
LNCaP cells were incubated with [^68Ga]1a, [^68Ga]5a and [^68Ga]5b for up to 2 h at 37° C. to determine whether the compound is internalized by endocytosis. The cells were then washed with a mild acid buffer to remove extracellularly bound compound.
Non specific binding (NSB) was evaluated by blocking with 20 μM PMPA. Specificity of cell uptake (SB) was calculated by subtracting the respective signals resulting from PMPA blocking. Values are expressed as % of applied radioactivity bound to 10^6 cells.

[5] = Biodistribution of radiotracers in normal mice; type: in vivo, mouse; settings: for Biodistribution: Blood / Biodistribution: Bone / Biodistribution: Brain / Biodistribution: Heart / Biodistribution: Kidney / Biodistribution: Liver / Biodistribution: Lung / Biodistribution: Muscle / Biodistribution: Pancreas / Biodistribution: Skin / Biodistribution: Spleen: normal male mice
Procedure: Normal CD-1 male mice were injected via the tail vein with 35 μCi of [^68Ga] radiotracers (0.2 nmole of ligand). […] All organs were removed and blood was also collected. Each organ was weighed, and the tissue radioactivity was measured with an automated gamma counter (Wizard, Perkin Elmer). The % ID/g was calculated by comparison with samples of a standard dilution of the initial dose. All measurements were corrected for decay.

SMILES: O=C(O)CCc1ccc(O)c(CN(CCN(CC(=O)O)Cc2cc(CCC(=O)NCCCCCC(=O)NCCCC[C@H](NC(=O)N[C@@H](CCC(=O)O)C(=O)O)C(=O)O)ccc2O)CC(=O)O)c1 [Compound 1a, Glu-NH—CO—NH-Lys(Ahx)-HBED-CC, reference compound]
IC50 (PSMA [1]): 16.6 ± 2.4 nM
Specific binding (SB) SB = TB − NSB (PSMA [2]): 12.3
Total binding (TB) (PSMA [2]): 13.5
Nonspecific binding (NSB) (PSMA [2]): 1.2

SMILES: O=C(O)CCc1ccc(O)c(CN(CCN(CC(=O)O)Cc2cc(CCC(=O)NCC(=O)N[C@@H](Cc3ccc(OCC(=O)N[C@@H](Cc4ccccc4)C(=O)NCCCC[C@H](NC(=O)N[C@@H](CCC(=O)O)C(=O)O)C(=O)O)cc3)C(=O)O)ccc2O)CC(=O)O)c1 [Compound 5b, (4S,11S,15S)-4-Benzyl-1-(4-((S)-2-carboxy-2-(2-(3-(3-(((2-((5-(2-carboxyethyl)-2-hydroxybenzyl)(carboxymethyl)amino)ethyl)(carboxymethyl)amino)methyl)-4-hydroxyphenyl)propanamido)acetamido)ethyl)phenoxy)-2,5,13-trioxo-3,6,12,14-tetraazaheptadecane-11,15,17-tricarboxylic acid.]
Specific binding (SB) SB = TB − NSB (PSMA [2]): 10.54
Total binding (TB) (PSMA [2]): 10.73
Nonspecific binding (NSB) (PSMA [2]): 0.18

IC50 (PSMA [1]): 5 ± 1.9 nM
SMILES: O=C(O)CC[C@H](NC(=O)N[C@@H](CCCCNC(=O)[C@H](Cc1ccccc1)NC(=O)COc1ccc(C[C@H](NC(=O)CNC(=O)c2cccc(I)c2)C(=O)O)cc1)C(=O)O)C(=O)O [Compound 5c, (4S,11S,15S)-4-Benzyl-1-(4-((S)-2-carboxy-2-(2-(3-iodobenzamido)acetamido)ethyl)phenoxy)-2,5,13-trioxo-3,6,12,14-tetraazaheptadecane-11,15,17-tricarboxylic acid]

IC50 (PSMA [1]): 5.3 ± 2.2 nM
SMILES: O=C(O)CC[C@H](NC(=O)N[C@@H](CCCCNC(=O)[C@H](Cc1ccccc1)NC(=O)COc1ccc(C[C@H](NC(=O)CNC(=O)c2ccccc2I)C(=O)O)cc1)C(=O)O)C(=O)O [Compound 5d, (4S,11S,15S)-4-Benzyl-1-(4-((S)-2-carboxy-2-(2-(2-iodobenzamido)acetamido)ethyl)phenoxy)-2,5,13-trioxo-3,6,12,14-tetraazaheptadecane-11,15,17-tricarboxylic acid]

IC50 (PSMA [1]): 6 ± 1.8 nM
SMILES: O=C(O)CC[C@H](NC(=O)N[C@@H](CCCCNC(=O)[C@H](Cc1ccccc1)NC(=O)COc1ccc(C[C@H](NC(=O)CNC(=O)c2ccc(F)nc2)C(=O)O)cc1)C(=O)O)C(=O)O [Compound 5e]

IC50 (PSMA [1]): 4.6 ± 1.4 nM
SMILES: O=C(O)CC[C@H](NC(=O)N[C@@H](CCCCNC(=O)Nc1ccc(I)cc1)C(=O)O)C(=O)O [MIP-1095, reference compound]

Organ distribution: Blood [3]: 0.36 ± 0.05 % dose/g
Organ distribution: Bone [3]: 0.11 ± 0.04 % dose/g
Organ distribution: Brain [3]: 0.03 ± 0.01 % dose/g
Organ distribution: Heart [3]: 0.19 ± 0.04 % dose/g
Organ distribution: Liver [3]: 0.36 ± 0.10 % dose/g
Organ distribution: Lung [3]: 0.46 ± 0.13 % dose/g
Organ distribution: Muscle [3]: 0.21 ± 0.15 % dose/g
Organ distribution: Pancreas [3]: 0.20 ± 0.05 % dose/g
Organ distribution: Skin [3]: 0.33 ± 0.17 % dose/g
Organ distribution: Spleen [3]: 0.70 ± 0.38 % dose/g
SMILES: O=C(O)CC[C@H](NC(=O)N[C@@H](CCCCNC(=O)[C@H](Cc1ccccc1)NC(=O)COc1ccc(C[C@H](NC(=O)CNC(=O)C[N+]23CC[N+]45CC[N+]6(CC(=O)O)CC[N+]7(CC2)CC(=O)[O][68Ga-3]6347[O]C(=O)C5)C(=O)O)cc1)C(=O)O)C(=O)O (stereo partly shown) [[^68Ga]5a]
Cell surface binding activity ([4]; 5 min): 1.67 ± 0.24 % ID/10^6 cells
Internalized activity ([4]; 5 min): 0.21 ± 0.04 % ID/10^6 cells
Cell surface binding activity ([4]; 15 min): 1.92 ± 0.24 % ID/10^6 cells
Internalized activity ([4]; 15 min): 1.14 ± 0.21 % ID/10^6 cells
Cell surface binding activity ([4]; 30 min): 1.96 ± 0.27 % ID/10^6 cells
Internalized activity ([4]; 30 min): 2.55 ± 0.42 % ID/10^6 cells
Cell surface binding activity ([4]; 60 min): 1.89 ± 0.13 % ID/10^6 cells
Internalized activity ([4]; 60 min): 3.70 ± 0.44 % ID/10^6 cells
Cell surface binding activity ([4]; 90 min): 2.33 ± 0.01 % ID/10^6 cells
Internalized activity ([4]; 90 min): 5.40 ± 0.13 % ID/10^6 cells
Cell surface binding activity ([4]; 120 min): 2.03 ± 0.23 % ID/10^6 cells
Internalized activity ([4]; 120 min): 5.43 ± 1.20 % ID/10^6 cells

Biodistribution: Blood ([5]; 0.5 hr): 0.64 ± 0.22 % dose/g
Biodistribution: Bone ([5]; 0.5 hr): 0.22 ± 0.05 % dose/g
Biodistribution: Brain ([5]; 0.5 hr): 0.03 ± 0.01 % dose/g
Biodistribution: Heart ([5]; 0.5 hr): 0.28 ± 0.09 % dose/g
Biodistribution: Kidney ([5]; 0.5 hr): 40.6 ± 10.5 % dose/g
Biodistribution: Liver ([5]; 0.5 hr): 0.23 ± 0.02 % dose/g
Biodistribution: Lung ([5]; 0.5 hr): 0.80 ± 0.38 % dose/g
Biodistribution: Muscle ([5]; 0.5 hr): 0.27 ± 0.07 % dose/g
Biodistribution: Pancreas ([5]; 0.5 hr): 0.40 ± 0.07 % dose/g
Biodistribution: Skin ([5]; 0.5 hr): 0.56 ± 0.12 % dose/g
Biodistribution: Spleen ([5]; 0.5 hr): 0.78 ± 0.37 % dose/g
Biodistribution: Blood ([5]; 1 hr): 0.15 ± 0.05 % dose/g
Biodistribution: Bone ([5]; 1 hr): 0.11 ± 0.01 % dose/g
Biodistribution: Brain ([5]; 1 hr): 0.01 ± 0.00 % dose/g
Biodistribution: Heart ([5]; 1 hr): 0.14 ± 0.01 % dose/g
Biodistribution: Kidney ([5]; 1 hr): 30.3 ± 3.50 % dose/g
Biodistribution: Liver ([5]; 1 hr): 0.12 ± 0.02 % dose/g
Biodistribution: Lung ([5]; 1 hr): 0.45 ± 0.13 % dose/g
Biodistribution: Muscle ([5]; 1 hr): 0.11 ± 0.03 % dose/g
Biodistribution: Pancreas ([5]; 1 hr): 0.32 ± 0.183 % dose/g
Biodistribution: Skin ([5]; 1 hr): 0.21 ± 0.04 % dose/g
Biodistribution: Spleen ([5]; 1 hr): 0.92 ± 0.24 % dose/g
Biodistribution: Blood ([5]; 6 hr): 0.01 ± 0.00 % dose/g
Biodistribution: Bone ([5]; 6 hr): 0.12 ± 0.01 % dose/g
Biodistribution: Brain ([5]; 6 hr): 0.01 ± 0.00 % dose/g
Biodistribution: Heart ([5]; 6 hr): 0.02 ± 0.01 % dose/g
Biodistribution: Kidney ([5]; 6 hr): 17.8 ± 4.07 % dose/g
Biodistribution: Liver ([5]; 6 hr): 0.07 ± 0.01 % dose/g
Biodistribution: Lung ([5]; 6 hr): 0.11 ± 0.00 % dose/g
Biodistribution: Muscle ([5]; 6 hr): 0.03 ± 0.00 % dose/g
Biodistribution: Pancreas ([5]; 6 hr): 0.08 ± 0.03 % dose/g
Biodistribution: Skin ([5]; 6 hr): 0.06 ± 0.00 % dose/g
Biodistribution: Spleen ([5]; 6 hr): 0.28 ± 0.08 % dose/g
Biodistribution: Blood ([5]; 24 hr): 0.01 ± 0.00 % dose/g
Biodistribution: Bone ([5]; 24 hr): 0.12 ± 0.01 % dose/g
Biodistribution: Brain ([5]; 24 hr): 0.01 ± 0.00 % dose/g
Biodistribution: Heart ([5]; 24 hr): 0.01 ± 0.00 % dose/g
Biodistribution: Kidney ([5]; 24 hr): 4.02 ± 1.34 % dose/g
Biodistribution: Liver ([5]; 24 hr): 0.03 ± 0.00 % dose/g
Biodistribution: Lung ([5]; 24 hr): 0.03 ± 0.01 % dose/g
Biodistribution: Muscle ([5]; 24 hr): 0.01 ± 0.00 % dose/g
Biodistribution: Pancreas ([5]; 24 hr): 0.02 ± 0.01 % dose/g
Biodistribution: Skin ([5]; 24 hr): 0.04 ± 0.01 % dose/g
Biodistribution: Spleen ([5]; 24 hr): 0.04 ± 0.00 % dose/g
Initial uptakes in the kidneys, in words ([5]; normal mice): comparable to that of [^68Ga]1g
SMILES: O=C(O)CC[C@H](NC(=O)N[C@@H](CCCCNC(=O)CCCCCNC(=O)CCc1ccc(O)c(CN(CCN(CC(=O)O)Cc2cc(CCC(=O)NCCNC(=O)CN3CCN4CCN5CCN(CC3)CC(=O)[O][177Lu]([O]C(=O)C4)[O]C(=O)C5)ccc2O)CC(=O)O)c1)C(=O)O)C(=O)O [[^177Lu]1g]

IC50 (PSMA [1]): 16.5 ± 3.1 nM
SMILES: O=C(O)CCc1ccc2c(c1)C[N+]13CC[N+]45CC(=O)[O][Ga-3]14([O]C(=O)C3)([O]2)[O]c1ccc(CCC(=O)NCC(=O)N[C@@H](Cc2ccc(OCC(=O)N[C@@H](Cc3ccccc3)C(=O)NCCCC[C@H](NC(=O)N[C@@H](CCC(=O)O)C(=O)O)C(=O)O)cc2)C(=O)O)cc1C5 (stereo partly shown) [[^natGa]5b]
